# Source: ChEMBL document CHEMBL1201862, “PubChem BioAssay data set” (2004)
# The source made the active and inactive calls.
# What was measured:
# [1] = Luminescence Cell-Based Dose Retest to Confirm Inhibitors of Cancer Stem Cells. [Related pubchem assays (depositor defined):AID2717, AID2721]; type: functional; conditions: Homo sapiens
# [2] = biological target: Disintegrin and metalloproteinase domain-containing protein 17 (Homo sapiens, UniProt P78536); experiment: exosite inhibitors of ADAM17, dose response, biochemical (AID 743260)
# [3] = inhibition of ADAM10 peptide cleavage – biochemical, FRET peptide substrate, recombinant human ADAM10, selectivity assay for ADAM17 exosite inhibitor project, dose response (AID 743259);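 also: ADAM10 enzyme cleaving a FRET peptide substrate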
# [4] = biological target: Oxysterols receptor LXR-beta (Homo sapiens, UniProt P55055); type: functional, cell-based;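 also: Cell-based luminescence dose-response assay of agonist activity at LXR, run as a confirmatory counterscreen to a daf-12 agonist screen; HEK293 cells with Gal4-LXR fusion and GAL4-driven luciferase reporter; agonist potency from rising luciferase signal of a Gal4-LXR reporter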
# [5] = cells
# [6] = biological target: T1, Replicative DNA helicase DnaB (Mycobacterium tuberculosis, UniProt P9WMR3); experiment: DnaB intein splicing inhibitors, dose response, biochemical, cell-free fluorescence (AID 449749); type: functional
# T1 sequence (P9WMR3 whole entry): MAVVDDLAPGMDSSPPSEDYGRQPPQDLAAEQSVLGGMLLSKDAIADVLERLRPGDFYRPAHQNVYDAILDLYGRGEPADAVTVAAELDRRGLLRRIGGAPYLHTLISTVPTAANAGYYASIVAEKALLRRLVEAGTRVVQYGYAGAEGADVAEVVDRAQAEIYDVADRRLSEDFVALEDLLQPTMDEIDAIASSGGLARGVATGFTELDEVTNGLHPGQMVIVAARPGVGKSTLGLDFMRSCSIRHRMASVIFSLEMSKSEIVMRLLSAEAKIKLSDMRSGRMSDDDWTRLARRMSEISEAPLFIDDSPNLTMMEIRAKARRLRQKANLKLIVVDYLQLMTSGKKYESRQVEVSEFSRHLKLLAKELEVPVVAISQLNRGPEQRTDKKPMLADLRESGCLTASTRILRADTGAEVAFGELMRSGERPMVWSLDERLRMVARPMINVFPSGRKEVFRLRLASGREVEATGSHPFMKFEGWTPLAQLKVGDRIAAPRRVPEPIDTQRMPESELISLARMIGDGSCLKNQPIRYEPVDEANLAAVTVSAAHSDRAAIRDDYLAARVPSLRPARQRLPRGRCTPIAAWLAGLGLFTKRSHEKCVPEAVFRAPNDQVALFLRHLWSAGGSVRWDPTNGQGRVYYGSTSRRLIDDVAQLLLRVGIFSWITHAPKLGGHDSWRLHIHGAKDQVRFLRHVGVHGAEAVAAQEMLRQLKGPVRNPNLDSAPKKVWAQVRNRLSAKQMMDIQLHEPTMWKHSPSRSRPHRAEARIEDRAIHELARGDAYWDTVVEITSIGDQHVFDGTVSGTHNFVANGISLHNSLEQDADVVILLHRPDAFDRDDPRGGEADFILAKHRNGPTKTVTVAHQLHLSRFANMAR
# [7] = biological target: T2, Protein RecA (Mycobacterium tuberculosis, UniProt P9WHJ3); experiment: Fluorescence Cell-Free Homogeneous Dose Retest to Identify Inhibitors of RecA-Intein Splicing Activity. [Related pubchem assays (depositor defined):AID2097, AID2223, AID489010, AID492950]; type: functional
# T2 sequence (P9WHJ3 whole entry): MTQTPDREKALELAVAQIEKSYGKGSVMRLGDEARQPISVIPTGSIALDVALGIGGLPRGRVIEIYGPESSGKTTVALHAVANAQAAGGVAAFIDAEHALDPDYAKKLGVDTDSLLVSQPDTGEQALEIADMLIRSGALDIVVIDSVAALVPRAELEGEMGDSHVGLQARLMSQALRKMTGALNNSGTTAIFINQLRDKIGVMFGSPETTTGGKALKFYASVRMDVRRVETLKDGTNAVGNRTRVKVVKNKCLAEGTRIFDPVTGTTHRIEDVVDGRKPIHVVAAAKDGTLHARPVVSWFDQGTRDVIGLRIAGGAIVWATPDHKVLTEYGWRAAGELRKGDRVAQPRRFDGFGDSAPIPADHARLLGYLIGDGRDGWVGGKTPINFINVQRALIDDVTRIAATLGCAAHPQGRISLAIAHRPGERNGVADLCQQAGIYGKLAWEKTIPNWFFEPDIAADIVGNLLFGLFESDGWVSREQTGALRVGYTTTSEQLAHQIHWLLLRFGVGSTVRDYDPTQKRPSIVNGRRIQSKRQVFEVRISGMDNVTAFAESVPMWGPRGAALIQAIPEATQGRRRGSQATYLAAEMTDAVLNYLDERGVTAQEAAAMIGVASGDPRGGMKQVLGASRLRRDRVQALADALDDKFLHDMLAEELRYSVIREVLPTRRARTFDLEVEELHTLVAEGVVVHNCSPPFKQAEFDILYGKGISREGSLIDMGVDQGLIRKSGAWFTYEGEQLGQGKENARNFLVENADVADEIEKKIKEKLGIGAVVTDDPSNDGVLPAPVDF
# [8] = biological target: T3, Glutathione-S-transferase (Schistosoma japonicum, UniProt Q26513); experiment: GST-antibody interaction or FRET quenching – biochemical, TR-FRET, artefact control for Vif-APOBEC3G degradation inhibitor project, dose response (AID 1117362); type: functional
# T3 sequence (Q26513 whole entry): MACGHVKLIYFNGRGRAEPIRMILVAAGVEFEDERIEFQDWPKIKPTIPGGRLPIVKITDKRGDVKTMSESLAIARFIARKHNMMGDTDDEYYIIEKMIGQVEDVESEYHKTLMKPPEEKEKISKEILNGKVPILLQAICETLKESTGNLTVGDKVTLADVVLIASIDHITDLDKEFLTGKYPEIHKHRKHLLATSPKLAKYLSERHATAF
# [9] = viability loss in Vero cells – cytotoxicity control for Vif-APOBEC3G degradation inhibitor project, dose response (AID 1117358); type: functional; conditions: Vero
# [10] = viability inhibitors of stage V gametocytes – luminescence, dose response (AID 1117278); type: functional, cell-based;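 also: gametocytes exposed to compound for 24 hours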
# [11] = viability loss in human Jurkat cells – cell-based, luminescence, cytotoxicity control for P. falciparum gametocyte viability project, dose response (AID 1117277); type: functional;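 also: potency reflects loss of cellular ATP meaning fewer viable cells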
# [12] = biological target: Photoreceptor-specific nuclear receptor (Homo sapiens, UniProt Q9Y5X4); type: functional, cell-based;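 also: CHO-S cells with Gal4-NCOR and VP16-NR2E3 two-hybrid luciferase reporter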
# [13] = rise of 2N DNA cells, HeLa – IC50, dose response (AID 1117349); type: functional, cell-based
# [14] = RKO cell viability reduction, dose response, CellTiter-Glo luminescence (AID 1117322); type: functional
# [15] = cytotoxicity toward HCT116 cells – cell-based, CellTiter-Glo luminescence, IC50, dose response (AID 1117332); type: functional; conditions: HCT-116
# [16] = SNU-C1 cell viability reduction, dose response, CellTiter-Glo luminescence (AID 1117323); type: functional, cell-based
# [17] = glucagon-like peptide-1 release potency in STC-1, concentration-response, half-maximal inhibitory concentration in the STC-1 line (AID 1117345); type: functional, cell-based
# [18] = cytotoxicity toward Colo320 cells – cell-based, CellTiter-Glo luminescence, IC50, dose response (AID 1117334); type: functional; conditions: COLO 320
# [19] = rise of 4N DNA cells, HeLa – IC50, dose response (AID 1117351); type: functional, cell-based
# [20] = cytotoxicity toward HT-29 cells – cell-based, CellTiter-Glo luminescence, IC50, dose response (AID 1117330); type: functional
# [21] = Reduced DLD-1 viability, concentration-response, CellTiter-Glo luminescence (AID 1117352); type: functional
# [22] = HCT116 cell viability decrease, GSK3B pretreatment – CellTiter-Glo, IC50, dose response (AID 1117339); type: functional; conditions: HCT-116
# [23] = Potency on glucagon-like peptide 1 release, dose-response in NCI-H716 cell line, half maximal inhibitory concentration (AID 1117344); type: functional, cell-based
# [24] = general mammalian cell viability loss – inhibitor set, cherry-pick, set 2, cytotoxicity control for miR-122 modulator project, dose response (AID 720697); type: functional, cell-based
# [25] = growth inhibition of yeast DHODH-expressing 3D7 parasites – SYBR Green, dry powder samples, dose response (AID 1159570); type: functional, cell-based;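 also: parasite growth measured after 72 hours of compound exposure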
# [26] = P. falciparum Dd2 growth inhibitors, dose response, SYBR Green, cherry-picked samples (AID 1159567); type: functional, cell-based
# [27] = Dd2 malaria parasite growth inhibition potency – SYBR Green, dry powder samples, dose response (AID 1159566); type: functional, cell-based;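 also: potency for growth inhibition with lower SYBR green DNA signal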
# [28] = growth inhibition of PfATP4-mutant resistant parasites – NITD609-resistant line, SYBR Green, dry powder, dose response (AID 1159571); type: functional, cell-based;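 also: parasites synchronized at ring stage by sorbitol before testing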
# [29] = CellTiter-Glo luminescence survival assay, SW480 colon tumor line, concentration-response curve, half-maximal inhibitory concentration (AID 1117338); type: functional
# Sequence of Disintegrin and metalloproteinase domain-containing protein 17 (P78536 whole entry, the tested form may be a part): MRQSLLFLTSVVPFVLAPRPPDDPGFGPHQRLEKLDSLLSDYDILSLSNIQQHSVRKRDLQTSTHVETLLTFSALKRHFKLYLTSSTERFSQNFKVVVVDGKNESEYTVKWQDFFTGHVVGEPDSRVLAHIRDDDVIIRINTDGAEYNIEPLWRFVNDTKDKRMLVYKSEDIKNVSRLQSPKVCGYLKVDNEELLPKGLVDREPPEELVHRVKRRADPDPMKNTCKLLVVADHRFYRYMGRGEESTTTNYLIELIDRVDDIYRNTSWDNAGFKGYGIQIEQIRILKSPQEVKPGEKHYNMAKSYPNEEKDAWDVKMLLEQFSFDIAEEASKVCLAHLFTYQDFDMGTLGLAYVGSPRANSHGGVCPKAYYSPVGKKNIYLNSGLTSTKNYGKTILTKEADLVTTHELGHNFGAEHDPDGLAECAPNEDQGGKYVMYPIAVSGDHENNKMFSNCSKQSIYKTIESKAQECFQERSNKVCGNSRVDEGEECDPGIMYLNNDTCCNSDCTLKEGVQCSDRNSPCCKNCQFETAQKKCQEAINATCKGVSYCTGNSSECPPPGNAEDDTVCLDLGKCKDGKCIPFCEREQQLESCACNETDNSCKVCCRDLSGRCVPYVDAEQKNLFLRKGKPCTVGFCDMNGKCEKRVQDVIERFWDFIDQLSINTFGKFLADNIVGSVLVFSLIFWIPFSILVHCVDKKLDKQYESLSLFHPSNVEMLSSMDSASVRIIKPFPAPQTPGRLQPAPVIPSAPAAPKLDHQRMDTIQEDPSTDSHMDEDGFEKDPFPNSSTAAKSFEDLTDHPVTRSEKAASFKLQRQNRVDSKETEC
# Sequence of Oxysterols receptor LXR-beta (P55055 whole entry, the tested form may be a part): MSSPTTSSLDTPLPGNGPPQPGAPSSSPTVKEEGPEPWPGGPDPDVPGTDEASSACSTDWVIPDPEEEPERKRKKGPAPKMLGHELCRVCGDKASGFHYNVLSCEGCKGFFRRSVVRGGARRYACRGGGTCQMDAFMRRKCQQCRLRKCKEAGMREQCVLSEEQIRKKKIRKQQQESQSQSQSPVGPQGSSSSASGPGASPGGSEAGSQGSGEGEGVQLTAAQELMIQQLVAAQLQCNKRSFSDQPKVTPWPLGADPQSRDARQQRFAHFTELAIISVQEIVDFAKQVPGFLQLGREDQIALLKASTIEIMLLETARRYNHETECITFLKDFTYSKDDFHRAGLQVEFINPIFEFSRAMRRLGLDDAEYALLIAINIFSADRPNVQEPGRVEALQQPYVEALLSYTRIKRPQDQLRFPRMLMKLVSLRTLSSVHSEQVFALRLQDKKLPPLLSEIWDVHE
# Sequence of Photoreceptor-specific nuclear receptor (Q9Y5X4 whole entry, the tested form may be a part): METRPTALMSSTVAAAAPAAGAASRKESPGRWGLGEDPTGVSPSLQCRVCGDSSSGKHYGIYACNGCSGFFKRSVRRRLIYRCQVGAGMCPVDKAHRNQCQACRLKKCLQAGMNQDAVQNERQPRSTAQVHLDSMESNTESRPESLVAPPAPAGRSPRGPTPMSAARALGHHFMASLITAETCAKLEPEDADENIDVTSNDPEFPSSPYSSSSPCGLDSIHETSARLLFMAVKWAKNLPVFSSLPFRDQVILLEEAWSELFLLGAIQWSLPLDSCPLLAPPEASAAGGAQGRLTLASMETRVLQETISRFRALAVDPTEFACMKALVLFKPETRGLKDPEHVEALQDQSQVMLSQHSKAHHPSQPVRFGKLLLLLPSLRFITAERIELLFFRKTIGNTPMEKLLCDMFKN
structure (smiles),measurement,setting,value
O=S(=O)(c1ccccc1)N(CC(O)Cn1c2ccccc2c2ccccc21)c1ccccc1 (stereo not given),AC50,[1],3.66 µM (active)
same,IC50,[2],> 69.5 µM (inactive)
same,IC50,[3],> 69.5 µM (inactive)
Cc1nn(-c2ccc(Cl)cc2)c(=O)c2ccccc12,EC50,[4],> 67.5 µM (inactive)
same,EC50,[5],> 67.5 µM (inactive)
CCN(CC)c1ccc2c(c1)CCCN2,AC50,[6],> 120 µM (inactive)
same,EC50,[7],> 380 µM (inconclusive)
same,IC50,[8],48.6 µM (active)
same,CC50,[9],> 40 µM (active)
O=C(Nc1cccc(C(=O)N2CCOCC2)c1)c1ccccc1,IC50,[10],> 109 µM (inactive)
same,IC50,[11],> 83.3 µM (inactive)
CCC(C)(C)C(=O)O[C@H]1C[C@@H](C)C=C2C=C[C@H](C)[C@H](CC[C@@H]3C[C@@H](O)CC(=O)O3)[C@H]21 [SIMVASTATIN],IC50,[12],1.16 µM (active)
same,IC50,[13],> 10 µM (inactive)
same,IC50,[14],> 20 µM (inactive)
same,IC50,[15],> 20 µM (inactive)
same,IC50,[16],> 20 µM (inactive)
same,IC50,[17],3.29 µM (active)
same,IC50,[18],4.94 µM (active)
same,IC50,[19],> 10 µM (inactive)
same,IC50,[20],> 20 µM (inactive)
same,IC50,[21],> 20 µM (inactive)
same,IC50,[22],4.73 µM (active)
same,IC50,[23],21.5 µM (inactive)
COCC(=O)Nc1ccc2c(c1)C(=O)N(C)[C@@H]1CC[C@@H](CC(=O)OC)O[C@@H]1CO2,AC50,[24],< 195 nM (active)
C[C@H](CO)N1C[C@H](C)[C@@H](CN(C)C(=O)Nc2ccc(-c3ccccc3)cc2)OCc2ccccc2-c2c(n(C)c3ccccc23)C1=O,AC50,[25],684 nM (active)
same,AC50,[26],1.41 µM (active)
same,AC50,[27],544 nM (active)
same,AC50,[28],577 nM (active)
CC(C)NCC(O)COc1ccc(CCOCC2CC2)cc1 (stereo not given) [BETAXOLOL],IC50,[29],> 20 µM (inactive)
same,IC50,[14],> 20 µM (inactive)
same,IC50,[15],> 20 µM (inactive)
same,IC50,[16],> 20 µM (inactive)
same,IC50,[18],6.17 µM (inactive)
same,IC50,[20],> 20 µM (inactive)
same,IC50,[21],> 20 µM (inactive)
